Reference: the supplement of paper PMC10307832

Columns and labels:
Test in all cases: relative viability (nuclei count vs DMSO), 5 days (fraction); higher = more cells survive
YM155 + Tozasertib = compound: COCC[n+]1c2c(n(Cc3cnccn3)c1C)C(=O)c1ccccc1C2=O [YM155] + Cc1cc(Nc2cc(N3CCN(C)CC3)nc(Sc3ccc(NC(=O)C4CC4)cc3)n2)n[nH]1 [Tozasertib] (partner 0.1 µM)
Summary of the method: (§1)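 Relative viability is defined as nuclei in treated wells over nuclei in vehicle wells. Duplicate plates were run and medians reported. Lung cancer cell lines in 1536-well plates were dosed by pin tool one day after seeding, with one drug or with a fixed anchor-drug dose plus five library-drug doses (not always all listed) in √10 steps, and nuclei were counted after 5 days.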

Quizartinib + Olaparib = compound: CC(C)(C)c1cc(NC(=O)Nc2ccc(-c3cn4c(n3)sc3cc(OCCN5CCOCC5)ccc34)cc2)no1 [Quizartinib] + O=C(c1cc(Cc2n[nH]c(=O)c3ccccc23)ccc1F)N1CCN(C(=O)C2CC2)CC1 [Olaparib] (partner 8 µM)
Summary of the method: as §1

YM155 + Decitabine = compound: COCC[n+]1c2c(n(Cc3cnccn3)c1C)C(=O)c1ccccc1C2=O [YM155] + Nc1ncn([C@H]2C[C@H](O)[C@@H](CO)O2)c(=O)n1 [Decitabine] (partner 2 µM)
Summary of the method: as §1

Quizartinib + Lapatinib = compound: CC(C)(C)c1cc(NC(=O)Nc2ccc(-c3cn4c(n3)sc3cc(OCCN5CCOCC5)ccc34)cc2)no1 [Quizartinib] + CS(=O)(=O)CCNCc1ccc(-c2ccc3ncnc(Nc4ccc(OCc5cccc(F)c5)c(Cl)c4)c3c2)o1 [Lapatinib] (partner 2 µM)
Summary of the method: as §1

Cell Line | relative viability (YM155 + Tozasertib; first compound 0.002 µM) | relative viability (YM155 + Tozasertib; first compound 0.006325 µM) | relative viability (YM155 + Tozasertib; first compound 0.02 µM) | relative viability (YM155 + Tozasertib; first compound 0.06325 µM) | relative viability (Quizartinib + Olaparib; first compound 0.001 µM) | relative viability (Quizartinib + Olaparib; first compound 0.003162 µM) | relative viability (Quizartinib + Olaparib; first compound 0.01 µM) | relative viability (Quizartinib + Olaparib; first compound 0.03162 µM) | relative viability (Quizartinib + Olaparib; first compound 0.1 µM) | relative viability (YM155 + Decitabine; first compound 0.002 µM) | relative viability (YM155 + Decitabine; first compound 0.006325 µM) | relative viability (YM155 + Decitabine; first compound 0.02 µM) | relative viability (YM155 + Decitabine; first compound 0.06325 µM) | relative viability (Quizartinib + Lapatinib; first compound 0.001 µM) | relative viability (Quizartinib + Lapatinib; first compound 0.003162 µM) | relative viability (Quizartinib + Lapatinib; first compound 0.01 µM) | relative viability (Quizartinib + Lapatinib; first compound 0.03162 µM) | relative viability (Quizartinib + Lapatinib; first compound 0.1 µM)
NCI-H2342 | 0.477 | 0.566 | 0.541 | 0.479 | 0.415 | 0.474 | 0.51 | 0.388 | 0.395 | 0.729 | 0.709 | 0.788 | 0.717 | – | – | – | – | –
CAL-12T | 0.311 | 0.336 | 0.376 | 0.149 | 0.617 | 0.76 | 0.674 | 0.594 | 0.841 | – | – | – | – | 0.587 | 0.716 | 0.667 | 0.687 | 0.795
NCI-H1395 | 0.788 | 0.779 | 0.814 | 0.777 | 0.476 | 0.455 | 0.489 | 0.444 | 0.512 | 0.715 | 0.689 | 0.736 | 0.776 | 0.992 | 0.941 | 0.883 | 0.842 | 1.2
NCI-H1299 | – | – | – | – | 0.949 | 0.967 | 0.987 | 0.995 | 0.984 | – | – | – | – | 0.983 | 0.932 | 0.956 | 0.922 | 0.903
NCI-H1703 | – | – | – | – | 0.488 | 0.306 | 0.2 | 0.166 | 0.307 | – | – | – | – | 1.18 | 0.432 | 0.379 | 0.216 | 0.315
HCC-15 | 0.4 | 0.369 | 0.472 | 0.251 | 0.684 | 0.685 | 0.676 | 0.641 | 0.69 | 0.634 | 0.627 | 0.704 | 0.658 | 0.652 | 0.795 | 0.859 | 0.791 | 0.767
SW 900 | 0.816 | 0.553 | 0.588 | 0.45 | 0.803 | 0.871 | 0.968 | 0.921 | 0.885 | – | 0.431 | 0.399 | 0.458 | – | – | – | – | –
NCI-H661 | 0.376 | 0.358 | 0.369 | 0.285 | 0.727 | 0.712 | 0.751 | 0.733 | 0.723 | 0.516 | 0.516 | 0.533 | 0.47 | 0.493 | 0.457 | 0.436 | 0.468 | 0.691
NCI-H647 | 0.317 | 0.302 | 0.401 | 0.303 | 0.622 | 0.507 | 0.669 | 0.499 | 0.585 | 0.482 | 0.405 | 0.288 | 0.272 | 0.966 | 1.1 | 1.12 | 0.97 | 0.985
